Test results: ChEMBL document CHEMBL5252552, “Defined concatenated α6α1β3γ2 GABAA receptor constructs reveal dual action of pyrazoloquinolinone allosteric modulators” (Bioorg Med Chem, 2019)

Key:
[1] = biological target: T1, Gamma-aminobutyric acid receptor subunit alpha-1/alpha-6/beta-3/gamma-2 (Rattus norvegicus) (UniProt P18508+P30191+P62813+P63079); assay: Positive allosteric modulation of rat recombinant GABAA alpha6beta3alpha1-gamma2beta3 receptor expressed in Xenopus laevis oocytes assessed as maximal efficacy at -80 mV holding potential at 30 uM in presence of GABA EC1 to 1.5 by two-electrode voltage-clamp assay; assay type: cell-based; conditions: Oocyte, filed as positive allosteric modulator
[2] = biological target: T2, Gamma-aminobutyric acid receptor subunit alpha-6/beta-3/gamma-2 (Rattus norvegicus) (UniProt P18508+P30191+P63079); assay: Positive allosteric modulation of rat recombinant GABAA alpha6beta3alpha6-gamma2beta3 receptor expressed in Xenopus laevis oocytes assessed as maximal efficacy at -80 mV holding potential at 30 uM in presence of GABA EC1 to 1.5 by two-electrode voltage-clamp assay; assay type: cell-based; conditions: Oocyte, filed as positive allosteric modulator
[3] = biological target: T3, Gamma-aminobutyric acid receptor subunit alpha-1/beta-3/gamma-2 (Rattus norvegicus) (UniProt P18508+P62813+P63079); assay: Positive allosteric modulation of rat recombinant GABAA alpha1beta3alpha1-gamma2beta3 receptor expressed in Xenopus laevis oocytes assessed as maximal efficacy at -80 mV holding potential at 30 nM in presence of GABA EC1 to 1.5 by two-electrode voltage-clamp assay; assay type: cell-based; conditions: Oocyte
[4] = biological target: T2, Gamma-aminobutyric acid receptor subunit alpha-6/beta-3/gamma-2 (Rattus norvegicus); assay: Positive allosteric modulation of rat recombinant GABAA alpha6beta3gamma2 receptor expressed in Xenopus laevis oocytes assessed as maximal efficacy at -80 mV holding potential at 3 uM in presence of GABA EC1 to 1.5 by two-electrode voltage-clamp assay; assay type: cell-based; conditions: Oocyte, filed as positive allosteric modulator
[5] = biological target: T3, Gamma-aminobutyric acid receptor subunit alpha-1/beta-3/gamma-2 (Rattus norvegicus); assay: Positive allosteric modulation of rat recombinant GABAA alpha1beta3gamma2 receptor expressed in Xenopus laevis oocytes assessed as maximal efficacy at -80 mV holding potential at 10 nM in presence of GABA EC1 to 1.5 by two-electrode voltage-clamp assay; assay type: cell-based; conditions: Oocyte
[6] = biological target: T3, Gamma-aminobutyric acid receptor subunit alpha-1/beta-3/gamma-2 (Rattus norvegicus); assay: Positive allosteric modulation of rat recombinant GABAA alpha1beta3gamma2 receptor expressed in Xenopus laevis oocytes assessed as maximal current at -80 mV holding potential under less potent phase in presence of GABA EC1 to 1.5 by two-electrode voltage-clamp assay relative to control; assay type: cell-based; conditions: Oocyte, filed as positive allosteric modulator
[7] = biological target: Gamma-aminobutyric acid receptor subunit alpha-6/beta-3/gamma-2 (Rattus norvegicus, UniProt P18508+P30191+P63079); assay: Positive allosteric modulation of rat recombinant GABAA alpha6beta3alpha6-gamma2beta3 receptor expressed in Xenopus laevis oocytes assessed as increase in GABA-induced current amplitude at -80 mV holding potential under less potent phase in presence of GABA EC1 to 1.5 by two-electrode voltage-clamp assay; assay type: cell-based, Oocyte
Gamma-aminobutyric acid receptor subunit alpha-6/beta-3/gamma-2, sequence (P18508 whole entry): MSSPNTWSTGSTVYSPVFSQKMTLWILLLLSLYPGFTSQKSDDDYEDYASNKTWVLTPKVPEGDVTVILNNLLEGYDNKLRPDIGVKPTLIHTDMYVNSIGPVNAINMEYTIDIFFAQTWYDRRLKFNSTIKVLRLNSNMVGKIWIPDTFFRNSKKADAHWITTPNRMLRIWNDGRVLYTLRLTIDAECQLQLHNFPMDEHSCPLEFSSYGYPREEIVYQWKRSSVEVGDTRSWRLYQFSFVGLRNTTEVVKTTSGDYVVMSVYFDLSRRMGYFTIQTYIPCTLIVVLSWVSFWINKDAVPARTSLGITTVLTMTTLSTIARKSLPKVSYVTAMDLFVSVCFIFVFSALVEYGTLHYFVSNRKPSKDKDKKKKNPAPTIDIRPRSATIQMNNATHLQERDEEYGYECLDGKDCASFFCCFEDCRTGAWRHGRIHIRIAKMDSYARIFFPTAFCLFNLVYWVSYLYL
Gamma-aminobutyric acid receptor subunit alpha-6/beta-3/gamma-2, sequence (P30191 whole entry): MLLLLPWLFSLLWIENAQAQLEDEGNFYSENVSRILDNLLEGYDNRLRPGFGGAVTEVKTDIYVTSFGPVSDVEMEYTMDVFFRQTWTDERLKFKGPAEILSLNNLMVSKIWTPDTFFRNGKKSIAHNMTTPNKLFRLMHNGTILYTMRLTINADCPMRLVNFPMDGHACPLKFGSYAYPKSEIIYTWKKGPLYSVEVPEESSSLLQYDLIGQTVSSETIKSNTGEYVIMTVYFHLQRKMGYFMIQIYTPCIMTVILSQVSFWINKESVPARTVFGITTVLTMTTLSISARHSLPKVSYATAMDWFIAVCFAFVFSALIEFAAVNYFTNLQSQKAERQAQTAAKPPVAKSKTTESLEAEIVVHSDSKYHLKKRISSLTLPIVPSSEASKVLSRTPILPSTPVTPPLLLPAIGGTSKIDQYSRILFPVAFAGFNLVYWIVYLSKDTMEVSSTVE
Gamma-aminobutyric acid receptor subunit alpha-6/beta-3/gamma-2, sequence (P63079 whole entry): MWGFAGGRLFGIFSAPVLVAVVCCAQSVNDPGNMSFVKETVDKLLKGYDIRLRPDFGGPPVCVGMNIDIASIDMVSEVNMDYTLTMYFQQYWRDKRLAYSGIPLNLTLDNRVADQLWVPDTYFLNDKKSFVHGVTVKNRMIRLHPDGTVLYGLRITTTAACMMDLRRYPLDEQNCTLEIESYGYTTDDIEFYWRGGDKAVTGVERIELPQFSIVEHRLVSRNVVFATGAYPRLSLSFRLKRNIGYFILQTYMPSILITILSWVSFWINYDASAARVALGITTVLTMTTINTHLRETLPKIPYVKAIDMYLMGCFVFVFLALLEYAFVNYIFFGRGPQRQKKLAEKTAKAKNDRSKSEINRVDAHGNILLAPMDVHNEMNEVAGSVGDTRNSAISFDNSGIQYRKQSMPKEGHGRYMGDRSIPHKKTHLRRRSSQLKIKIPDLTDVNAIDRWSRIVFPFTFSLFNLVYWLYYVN

[8] = biological target: T3, Gamma-aminobutyric acid receptor subunit alpha-1/beta-3/gamma-2 (Rattus norvegicus); assay: Positive allosteric modulation of rat recombinant GABAA alpha1beta3alpha1-gamma2beta3 receptor expressed in Xenopus laevis oocytes assessed as maximal efficacy at -80 mV holding potential at 30 uM in presence of GABA EC1 to 1.5 by two-electrode voltage-clamp assay; assay type: cell-based; conditions: Oocyte, filed as positive allosteric modulator
[9] = biological target: T1, Gamma-aminobutyric acid receptor subunit alpha-1/alpha-6/beta-3/gamma-2 (Rattus norvegicus); assay: Positive allosteric modulation of rat recombinant GABAA gamma2beta3alpha1-beta3alpha6 receptor expressed in Xenopus laevis oocytes assessed as maximal efficacy at -80 mV holding potential at 10 nM in presence of GABA EC1 to 1.5 by two-electrode voltage-clamp assay; assay type: cell-based; conditions: Oocyte
[10] = biological target: T1, Gamma-aminobutyric acid receptor subunit alpha-1/alpha-6/beta-3/gamma-2 (Rattus norvegicus); assay: Positive allosteric modulation of rat recombinant GABAA gamma2beta3alpha1-beta3alpha6 receptor expressed in Xenopus laevis oocytes assessed as maximal current at -80 mV holding potential under more potent phase in presence of GABA EC1 to 1.5 by two-electrode voltage-clamp assay relative to control; assay type: cell-based; conditions: Oocyte
[11] = biological target: T2, Gamma-aminobutyric acid receptor subunit alpha-6/beta-3/gamma-2 (Rattus norvegicus); assay: Positive allosteric modulation of rat recombinant GABAA alpha6beta3alpha6-gamma2beta3 receptor expressed in Xenopus laevis oocytes assessed as maximal efficacy at -80 mV holding potential at 30 nM in presence of GABA EC1 to 1.5 by two-electrode voltage-clamp assay; assay type: cell-based; conditions: Oocyte, filed as positive allosteric modulator
[12] = biological target: T3, Gamma-aminobutyric acid receptor subunit alpha-1/beta-3/gamma-2 (Rattus norvegicus); assay: Positive allosteric modulation of rat recombinant GABAA alpha1beta3alpha1-gamma2beta3 receptor expressed in Xenopus laevis oocytes assessed as maximal efficacy at -80 mV holding potential at 10 uM in presence of GABA EC1 to 1.5 by two-electrode voltage-clamp assay; assay type: cell-based; conditions: Oocyte, filed as positive allosteric modulator
[13] = biological target: T3, Gamma-aminobutyric acid receptor subunit alpha-1/beta-3/gamma-2 (Rattus norvegicus); assay: Positive allosteric modulation of rat recombinant GABAA alpha1beta3gamma2 receptor expressed in Xenopus laevis oocytes assessed as maximal efficacy at -80 mV holding potential at 100 nM in presence of GABA EC1 to 1.5 by two-electrode voltage-clamp assay; assay type: cell-based; conditions: Oocyte
[14] = biological target: T2, Gamma-aminobutyric acid receptor subunit alpha-6/beta-3/gamma-2 (Rattus norvegicus); assay: Positive allosteric modulation of rat recombinant GABAA alpha6beta3alpha6-gamma2beta3 receptor expressed in Xenopus laevis oocytes assessed as maximal efficacy at -80 mV holding potential at 100 nM in presence of GABA EC1 to 1.5 by two-electrode voltage-clamp assay; assay type: cell-based; conditions: Oocyte, filed as positive allosteric modulator
[15] = biological target: T2, Gamma-aminobutyric acid receptor subunit alpha-6/beta-3/gamma-2 (Rattus norvegicus); assay: Positive allosteric modulation of rat recombinant GABAA alpha6beta3alpha6-gamma2beta3 receptor expressed in Xenopus laevis oocytes assessed as maximal current under less potent phase in presence of GABA EC1 to 1.5 by two-electrode voltage-clamp assay relative to control; assay type: cell-based; conditions: Oocyte, filed as positive allosteric modulator
[16] = biological target: T3, Gamma-aminobutyric acid receptor subunit alpha-1/beta-3/gamma-2 (Rattus norvegicus); assay: Positive allosteric modulation of rat recombinant GABAA alpha1beta3alpha1-gamma2beta3 receptor expressed in Xenopus laevis oocytes assessed as maximal efficacy at -80 mV holding potential at 10 nM in presence of GABA EC1 to 1.5 by two-electrode voltage-clamp assay; assay type: cell-based; conditions: Oocyte
[17] = biological target: T1, Gamma-aminobutyric acid receptor subunit alpha-1/alpha-6/beta-3/gamma-2 (Rattus norvegicus); assay: Positive allosteric modulation of rat recombinant GABAA gamma2beta3alpha1-beta3alpha6 receptor expressed in Xenopus laevis oocytes assessed as maximal efficacy at -80 mV holding potential at 3 nM in presence of GABA EC1 to 1.5 by two-electrode voltage-clamp assay; assay type: cell-based; conditions: Oocyte
[18] = biological target: T1, Gamma-aminobutyric acid receptor subunit alpha-1/alpha-6/beta-3/gamma-2 (Rattus norvegicus); assay: Positive allosteric modulation of rat recombinant GABAA alpha6beta3alpha1-gamma2beta3 receptor expressed in Xenopus laevis oocytes assessed as maximal efficacy at -80 mV holding potential at 3 uM in presence of GABA EC1 to 1.5 by two-electrode voltage-clamp assay; assay type: cell-based; conditions: Oocyte, filed as positive allosteric modulator
[19] = biological target: T1, Gamma-aminobutyric acid receptor subunit alpha-1/alpha-6/beta-3/gamma-2 (Rattus norvegicus); assay: Positive allosteric modulation of rat recombinant GABAA gamma2beta3alpha1-beta3alpha6 receptor expressed in Xenopus laevis oocytes assessed as maximal efficacy at -80 mV holding potential at 3 uM in presence of GABA EC1 to 1.5 by two-electrode voltage-clamp assay; assay type: cell-based; conditions: Oocyte, filed as positive allosteric modulator
[20] = biological target: T2, Gamma-aminobutyric acid receptor subunit alpha-6/beta-3/gamma-2 (Rattus norvegicus); assay: Positive allosteric modulation of rat recombinant GABAA alpha6beta3gamma2 receptor expressed in Xenopus laevis oocytes assessed as maximal efficacy at -80 mV holding potential at 10 nM in presence of GABA EC1 to 1.5 by two-electrode voltage-clamp assay; assay type: cell-based; conditions: Oocyte
[21] = biological target: T2, Gamma-aminobutyric acid receptor subunit alpha-6/beta-3/gamma-2 (Rattus norvegicus); assay: Positive allosteric modulation of rat recombinant GABAA alpha6beta3gamma2 receptor expressed in Xenopus laevis oocytes assessed as maximal efficacy at -80 mV holding potential at 3 nM in presence of GABA EC1 to 1.5 by two-electrode voltage-clamp assay; assay type: cell-based; conditions: Oocyte
[22] = biological target: T2, Gamma-aminobutyric acid receptor subunit alpha-6/beta-3/gamma-2 (Rattus norvegicus); assay: Positive allosteric modulation of rat recombinant GABAA alpha6beta3gamma2 receptor expressed in Xenopus laevis oocytes assessed as maximal efficacy at -80 mV holding potential at 30 uM in presence of GABA EC1 to 1.5 by two-electrode voltage-clamp assay; assay type: cell-based; conditions: Oocyte, filed as positive allosteric modulator
[23] = biological target: T2, Gamma-aminobutyric acid receptor subunit alpha-6/beta-3/gamma-2 (Rattus norvegicus); assay: Positive allosteric modulation of rat recombinant GABAA alpha6beta3alpha6-gamma2beta3 receptor expressed in Xenopus laevis oocytes assessed as maximal efficacy at -80 mV holding potential at 3 nM in presence of GABA EC1 to 1.5 by two-electrode voltage-clamp assay; assay type: cell-based; conditions: Oocyte

Efficacy [1]: 838% | Efficacy [2]: 570% | Efficacy [3]: 5% | Efficacy [4]: 377% | Efficacy [5]: 1% | %max [6]: 132% | EC50 [7]: 24 µM | Efficacy [8]: 242% | Efficacy [9]: 23% | %max [10]: 30% | Efficacy [11]: 65% | Efficacy [12]: 157% | Efficacy [13]: 5% | Efficacy [14]: 101% | %max [15]: 657% | Efficacy [16]: 1% | Efficacy [17]: 16% | Efficacy [18]: 363% | Efficacy [19]: 89% | Efficacy [20]: 24% | Efficacy [21]: 23% | Efficacy [22]: 595% | Efficacy [23]: 19%
SMILES: COc1ccc(-n2nc3c4ccc(Br)cc4[nH]cc-3c2=O)cc1
